Source: patent US20100122362A1, “CELLS EXPRESSING ALPHA-SYNUCLEIN AND USES THEREFOR” (priority 2006, published 2010)

How the values were obtained:
[1] = tested on: TS217 cells
Protocol: To determine the effect of overexpression of wild-type alpha-synuclein on cell viability using the stable, inducible system, TS217 cells were treated with 0.1 μg/mL tetracycline for three to six days to induce expression of alpha-synuclein. The relative viability of the cells was assessed at one day intervals (day 3, day 4, day 5, and day 6) by measuring the cellular ATP level in cell lysates using a ViaLight® Plus Bioassay kit (Cambrex, Rockland, Me.). Relative cell viability was calculated as the ratio of induced cells to control cells (cells not treated with tetracycline), as an indication of alpha-synuclein-induced cytotoxicity (see FIG. 3).
To determine whether the effect of tetracycline on cell viability was concentration-dependent, TS217 cells grown in 96 well plates were incubated with different concentrations of tetracycline for six days. Following treatment, each of the experimental cell groups were lysed and the cellular ATP measured as described above. Media with the vehicle alone (no tetracycline) served as control (FIG. 5). […]

[2] = tested on: TS217 cells; experiment: Calcein AM staining of live cells; format: cell-based; details: Homo sapiens, 120 h; 0.1 μg/mL tetracycline, 5 days; read-out: number of viable cells decreased (calcein-positive cells)
Protocol: The cytotoxicity of alpha-synuclein overexpression in TS217 cells was also assessed using the membrane-permeable dye, calcein AM. TS217 cells were plated on glass tissue culture chamber slides coated with poly-L-lysine and cultured in the absence (Control) or presence (Induced) of 0.1 μg/mL tetracycline for 5 days to induce alpha-synuclein expression. Cells were treated with 2 μM calcein AM and the fluorescence of enzyme-activated calcein AM (in live cells) was visualized using a fluorescent microscope (Olympus, Center Valley, Pa.) fitted with a digital camera controlled by the Metamorph program (Universal Imaging, West Chester, Pa.). Calcein-positive cells were quantitated using Metamorph software (Universal Imaging, West Chester, Pa.) (FIG. 4A).

[3] = tested on: TS217 cells; experiment: GM130 immunostaining of intact Golgi; format: cell-based, human; details: 0.1 μg/mL tetracycline, six day induction
Protocol: TS217 cells were plated on glass tissue culture chamber slides coated with poly-L-lysine and incubated for six days in the absence (Control) or presence of 0.1 μg/mL tetracycline (Induced) to induce alpha-synuclein expression. Following treatment, cells were fixed with 4% paraformaldehyde supplemented with 4% sucrose in phosphate-buffered saline, permeabilized with 0.2% triton in PBS, and stained with antibodies specific for the cis-Golgi tethering protein GM130 (FIG. 6A). The number of cells containing intact Golgi was reduced by almost 80% following the six day induction of alpha-synuclein (FIG. 6B).

Structure (SMILES)	Relative cell viability decreased (ratio of induced cells to control cells) ([1]; 0.1 μg/mL tetracycline, from day 3 to day 6, no other toxicity-inducing agents)	cytotoxicity at 0.1 µg/mL [2] [%]	number of cells containing intact Golgi reduced [3] [%]	Relative viability (ATP, ratio of induced to control), effect on alpha-synuclein-induced toxicity ([1]; 0.08, 0.15, 0.3 μM compound, with tetracycline induction for 5 days, FIG. 9)
CN(C)[C@@H]1C(O)=C(C(N)=O)C(=O)[C@@]2(O)C(O)=C3C(=O)c4c(O)cccc4[C@@](C)(O)[C@H]3C[C@@H]12 [tetracycline]	over 50%	~60	~80	–
CC(C)(C)n1nc(-c2ccc(Cl)cc2)c2c(N)ncnc21 [Cmp J, 1-t-Butyl-3-(4-chloro-phenyl)-1H-pyrazolo[3,4-d]pyrimidin-4-ylamine]	–	–	–	rescue of alpha-synuclein-induced toxicity
